Values quoted from earlier work in patent US20210236604A1, “THERAPEUTIC TREATMENT FOR NEUROTROPHIC KERATOPATHY” (priority 2017, published 2021).

Tests used:
[1] = test system: corneal epithelium wound healing; conditions: with substance-P; Nishida 2009; cited from earlier work
decubitus ulcers = conditions: Van Ort 1976; cited from earlier work
[2] = test system: experimentally-induced superficial skin wounds; conditions: diabetic and non-diabetic individuals; Greenway 1999; cited from earlier work
corneal abrasions = conditions: diabetic rats, cited from earlier work
corneal ulcers = conditions: systemic administration; Aynsley 1945; cited from earlier work
[3] = test system: sub-basal plexus corneal nerves; conditions: diabetic mice; Chen 2013; cited from earlier work

| Substance | corneal epithelium wound healing [1] | healing of decubitus ulcers (decubitus ulcers) | healing of experimentally-induced superficial skin wounds [2] | wound healing after corneal abrasions (corneal abrasions; Zagon 2007, Klocek 2009) | corneal sensation (corneal abrasions; Zagon 2007) | healing of corneal ulcers (corneal ulcers) | loss of sub-basal plexus corneal nerves [3] |
| --- | --- | --- | --- | --- | --- | --- | --- |
| Insulin-like growth factor-1 [IGF-1] | act synergistically with substance-P to promote corneal epithelium wound healing | – | – | – | – | – | – |
| insulin [topical insulin] | – | improve healing | improve healing | improves wound healing | improves corneal sensation | improved healing of corneal ulcers | slow the loss |
